# Results: US10202361B2, “Pyridazinones as herbicides” (E I DU PONT DE NEMOURS AND COMPANY, priority 2014, dated 2019)
# Columns and labels:
# Assay in all cases: Test E pre-/postemergence greenhouse herbicide test
# Type in all cases: in vivo
# Conditions in all cases: Preemergence, scale 0 to 100
# [1] = tested on: crabgrass, Brazil (Brazilian crabgrass, Digitaria horizontalis)
# Excerpt: (§1) Seeds of plant species selected from corn (Zea mays), soybean (Glycine max), lambsquarters (Chenopodium album), poinsettia, wild (wild poinsettia, Euphorbia heterophylla), pigweed, palmer (palmer pigweed, Amaranthus palmeri), waterhemp (common waterhemp, Amaranthus rudis), surinam grass (Brachiaria decumbens), crabgrass, large (large crabgrass Digitaria sanguinalis), crabgrass, Brazil (Brazilian crabgrass, Digitaria horizontalis), panicum, fall (fall panicum, Panicum dichotomiflorum), foxtail, giant (giant foxtail, Setaria faberii), foxtail, green (green foxtail, Setaria viridis), goosegrass (Eleusine indica), johnsongrass (Sorghum halepense), ragweed (common ragweed, Ambrosia elatior), barnyardgrass (Echinochloa crus-galli), sandbur (southern sandbur, Cenchrus echinatus), arrowleaf sida (Sida rhombifolia), ryegrass, Italian (Italian ryegrass, Lolium multiflorum), dayflower, VA (Virginia dayflower, Commelina virginica), field bindweed (Convolvulus arvensis), cocklebur (common cocklebur, Xanthium strumarium), morningglory (Ipomoea coccinea), nightshade (eastern black nightshade, Solanum ptycanthum), kochia (Kochia scoparia), nutsedge, yellow (yellow nutsedge, Cyperus esculentus), smartweed (ladysthumb smartweed, Polygonum persicaria), velvetleaf (Abutilon theophrasti), and beggarticks (hairy beggarticks, Bidens pilosa), were planted into a silt loam soil and treated preemergence with test chemicals formulated in a non-phytotoxic solvent mixture which included a surfactant.
# (§2) At the same time, plants from these crop and weed species and also waterhemp_RES1, (ALS & Triazine resistant common waterhemp, Amaranthus rudis), and waterhemp_RES2, (ALS & HPPD resistant common waterhemp, Amaranthus rudis) were planted in pots containing Redi-Earth® planting medium (Scotts Company, 14111 Scottslawn Road, Marysville, Ohio 43041) comprising spaghnum peat moss, vermiculite, wetting agent and starter nutrients were treated with postemergence applications of test chemicals formulated in the same manner. Plants ranged in height from 2 to 18 cm for postemergence treatments (1- to 4-leaf stage). Treated plants and controls were maintained in a greenhouse for 14 to 21 d, after which time all species were compared to controls and visually evaluated. Plant response ratings, summarized in Table E, are based on a scale of 0 to 100 where 0 is no effect and 100 is complete control. A dash (-) response means no test result.
# [2] = tested on: beggarticks (hairy beggarticks, Bidens pilosa)
# Excerpt: as §1, §2
# [3] = tested on: ryegrass, Italian (Italian ryegrass, Lolium multiflorum)
# Excerpt: as §1, §2
# soybean (Glycine max) = tested on: soybean (Glycine max)
# Excerpt: as §1, §2
# [4] = tested on: johnsongrass (Sorghum halepense)
# Excerpt: as §1, §2
# [5] = tested on: panicum, fall (fall panicum, Panicum dichotomiflorum)
# Excerpt: as §1, §2
# corn (Zea mays) = tested on: corn (Zea mays)
# Excerpt: as §1, §2
# kochia (Kochia scoparia) = tested on: kochia (Kochia scoparia)
# Excerpt: as §1, §2
# [6] = tested on: nightshade (eastern black nightshade, Solanum ptycanthum)
# Excerpt: as §1, §2
# [7] = tested on: arrowleaf sida (Sida rhombifolia)
# Excerpt: as §1, §2
# [8] = tested on: lambsquarters (Chenopodium album)
# Excerpt: as §1, §2
# [9] = tested on: pigweed, palmer (palmer pigweed, Amaranthus palmeri)
# Excerpt: as §1, §2
# [10] = tested on: field bindweed (Convolvulus arvensis)
# Excerpt: as §1, §2
# [11] = tested on: waterhemp (common waterhemp, Amaranthus rudis)
# Excerpt: as §1, §2
# [12] = tested on: morningglory (Ipomoea coccinea)
# Excerpt: as §1, §2
compound,measurement,setting,value
"CCOc1cc(=O)n(-c2ccc(F)cc2)nc1Cc1ccnc(C(F)(F)F)c1 [Compound 25, 5-ethoxy-2-(4-fluorophenyl)-6-[[2-(trifluoromethyl)-4-pyridinyl]methyl]-3 (2H)-pyridazinone]","Plant response rating: Crabgrass, Brazil",[1]; 8 g ai/ha,0
same,"Plant response rating: Crabgrass, Brazil",[1]; 16 g ai/ha,75
same,"Plant response rating: Crabgrass, Brazil",[1]; 31 g ai/ha,98
same,"Plant response rating: Crabgrass, Brazil",[1]; 62 g ai/ha,100
same,"Plant response rating: Crabgrass, Brazil",[1]; 125 g ai/ha,100
same,Plant response rating: Beggarticks,[2]; 8 g ai/ha,0
same,Plant response rating: Beggarticks,[2]; 16 g ai/ha,0
same,Plant response rating: Beggarticks,[2]; 31 g ai/ha,0
same,Plant response rating: Beggarticks,[2]; 62 g ai/ha,0
same,Plant response rating: Beggarticks,[2]; 125 g ai/ha,15
same,"Plant response rating: Ryegrass, Italian",[3]; 8 g ai/ha,0
same,"Plant response rating: Ryegrass, Italian",[3]; 16 g ai/ha,30
same,"Plant response rating: Ryegrass, Italian",[3]; 31 g ai/ha,30
same,"Plant response rating: Ryegrass, Italian",[3]; 62 g ai/ha,40
same,"Plant response rating: Ryegrass, Italian",[3]; 125 g ai/ha,50
same,Plant response rating: Soybean,soybean (Glycine max); 8 g ai/ha,0
same,Plant response rating: Soybean,soybean (Glycine max); 16 g ai/ha,0
same,Plant response rating: Soybean,soybean (Glycine max); 31 g ai/ha,0
same,Plant response rating: Soybean,soybean (Glycine max); 62 g ai/ha,20
same,Plant response rating: Soybean,soybean (Glycine max); 125 g ai/ha,30
same,Plant response rating: Johnsongrass,[4]; 8 g ai/ha,0
same,Plant response rating: Johnsongrass,[4]; 16 g ai/ha,0
same,Plant response rating: Johnsongrass,[4]; 31 g ai/ha,10
same,Plant response rating: Johnsongrass,[4]; 62 g ai/ha,35
same,Plant response rating: Johnsongrass,[4]; 125 g ai/ha,65
same,"Plant response rating: Panicum, Fall",[5]; 8 g ai/ha,0
same,"Plant response rating: Panicum, Fall",[5]; 16 g ai/ha,35
same,"Plant response rating: Panicum, Fall",[5]; 31 g ai/ha,50
same,"Plant response rating: Panicum, Fall",[5]; 62 g ai/ha,100
same,"Plant response rating: Panicum, Fall",[5]; 125 g ai/ha,100
same,Plant response rating: Corn,corn (Zea mays); 8 g ai/ha,0
same,Plant response rating: Corn,corn (Zea mays); 16 g ai/ha,10
same,Plant response rating: Corn,corn (Zea mays); 31 g ai/ha,25
same,Plant response rating: Corn,corn (Zea mays); 62 g ai/ha,40
same,Plant response rating: Corn,corn (Zea mays); 125 g ai/ha,35
same,Plant response rating: Kochia,kochia (Kochia scoparia); 8 g ai/ha,40
same,Plant response rating: Kochia,kochia (Kochia scoparia); 16 g ai/ha,50
same,Plant response rating: Kochia,kochia (Kochia scoparia); 31 g ai/ha,70
same,Plant response rating: Kochia,kochia (Kochia scoparia); 62 g ai/ha,100
same,Plant response rating: Kochia,kochia (Kochia scoparia); 125 g ai/ha,95
same,Plant response rating: Nightshade,[6]; 8 g ai/ha,5
same,Plant response rating: Nightshade,[6]; 16 g ai/ha,50
same,Plant response rating: Nightshade,[6]; 31 g ai/ha,80
same,Plant response rating: Nightshade,[6]; 62 g ai/ha,98
same,Plant response rating: Nightshade,[6]; 125 g ai/ha,100
same,Plant response rating: Arrowleaf Sida,[7]; 8 g ai/ha,0
same,Plant response rating: Arrowleaf Sida,[7]; 16 g ai/ha,5
same,Plant response rating: Arrowleaf Sida,[7]; 31 g ai/ha,5
same,Plant response rating: Arrowleaf Sida,[7]; 62 g ai/ha,35
same,Plant response rating: Arrowleaf Sida,[7]; 125 g ai/ha,40
same,Plant response rating: Lambsquarters,[8]; 8 g ai/ha,65
same,Plant response rating: Lambsquarters,[8]; 16 g ai/ha,98
same,Plant response rating: Lambsquarters,[8]; 31 g ai/ha,100
same,Plant response rating: Lambsquarters,[8]; 62 g ai/ha,100
same,Plant response rating: Lambsquarters,[8]; 125 g ai/ha,100
same,"Plant response rating: Pigweed, Palmer",[9]; 8 g ai/ha,0
same,"Plant response rating: Pigweed, Palmer",[9]; 16 g ai/ha,95
same,"Plant response rating: Pigweed, Palmer",[9]; 31 g ai/ha,95
same,"Plant response rating: Pigweed, Palmer",[9]; 62 g ai/ha,100
same,"Plant response rating: Pigweed, Palmer",[9]; 125 g ai/ha,100
same,Plant response rating: Field Bindweed,[10]; 8 g ai/ha,0
same,Plant response rating: Field Bindweed,[10]; 16 g ai/ha,0
same,Plant response rating: Field Bindweed,[10]; 31 g ai/ha,0
same,Plant response rating: Field Bindweed,[10]; 62 g ai/ha,5
same,Plant response rating: Field Bindweed,[10]; 125 g ai/ha,100
same,Plant response rating: Waterhemp,[11]; 8 g ai/ha,35
same,Plant response rating: Waterhemp,[11]; 16 g ai/ha,50
same,Plant response rating: Waterhemp,[11]; 31 g ai/ha,100
same,Plant response rating: Waterhemp,[11]; 62 g ai/ha,100
same,Plant response rating: Waterhemp,[11]; 125 g ai/ha,100
same,Plant response rating: Morningglory,[12]; 8 g ai/ha,0
same,Plant response rating: Morningglory,[12]; 16 g ai/ha,0
same,Plant response rating: Morningglory,[12]; 31 g ai/ha,5
same,Plant response rating: Morningglory,[12]; 62 g ai/ha,50
same,Plant response rating: Morningglory,[12]; 125 g ai/ha,65
